Format in all cases: in vivo
Assay [1] concerns Yellow Fever Mosquito (Aedes aegypti, AEDSAE). Description: Bioassay on Yellow Fever Mosquito (YFM), 96-well plate larval assay. Particulars: Yellow Fever Mosquito, 96-well plate larval assay. A digest of the protocol:
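Each well was scored for mortality after 3 days at room temperature under a non-evaporative lid. Test molecules came from DMSO masters (4000 ppm stock) diluted with water/acetone 90:10 and dispensed into six replicate plates, which were then infested with roughly 1-day-old larvae in liver-powder water.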

Assay [2] concerns Cabbage Looper (Trichoplusia ni, TRIPNI). Description: Bioassay on Cabbage Looper (CL), 128-well diet tray assay. Particulars: Trichoplusia ni; Cabbage Looper, 128-well diet tray assay; read-out: CL rating. A digest of the protocol: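 Using eight wells per molecule, artificial diet was dosed at 50 μg/cm^2 with compound in 90:10 acetone-water and dried before one to five second-instar larvae were added per well. Covered vented trays were kept at 25° C. with 14:10 light-dark for five to seven days, then per-well percent mortality was recorded and averaged.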

In assay [3] the test system is Beet Armyworm (Spodoptera exigua, LAPHEG). Description: Bioassay on Beet Armyworm (BAW), 128-well diet tray assay. The following applies: Beet Armyworm, 128-well diet tray assay, read-out: BAW rating. The method, boiled down: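 Artificial diet surface-treated with 50 μg/cm^2 test molecule in 90:10 acetone-water, dried, then infested with one to five second instar larvae per well. Held covered and vented at 25° C., 14:10 light-dark for five to seven days; percent mortality recorded per well and averaged over eight wells.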

Structures can show the parent of a compound that is named as a salt.

For `CC(C)(C)OC(=O)Nc1ccc(NC(=O)c2cc(NC(=O)[C@H]3[C@H](c4cc(Cl)cc(Cl)c4)C3(Cl)Cl)ccc2Cl)cc1` (relative stereo) [PF13, trans-tert-Butyl-(4-(2-chloro-5-(2,2-dichloro-3-(3,5-dichlorophenyl)cyclopropane-1-carboxamido)benzamido)phenyl)carbamate], the YFM rating result in assay [1] is given as “A (80-100)”. Further, the pest or weed control at 50 µg/cm2 in assay [2] and in assay [3] was 50 to 100% each time.
As for `C#Cc1ccc(NC(=O)c2cc(NC(=O)[C@H]3[C@H](c4cc(Cl)cc(Cl)c4)C3(Cl)Cl)ccc2Cl)cc1` (relative stereo) [PF15, trans-2-Chloro-5-(2,2-dichloro-3-(3,5-dichlorophenyl)cyclopropane-1-carboxamido)-N-(4-ethynylphenyl)benzamide], the YFM rating entry in assay [1] was “B (More than 0-Less than 80)”. For the same molecule, the pest or weed control at 50 µg/cm2 in assay [2] and in assay [3] was 50 to 100% in each case.
As to `C=Cc1ccc(NC(=O)c2cc(NC(=O)[C@H]3[C@H](c4cc(Cl)cc(Cl)c4)C3(Cl)Cl)ccc2Cl)cc1` (relative stereo) [PF16, trans-2-Chloro-5-(2,2-dichloro-3-(3,5-dichlorophenyl)cyclopropane-1-carboxamido)-N-(4-vinylphenyl)benzamide], in assay [1], the YFM rating entry is reported as “A (80-100)”. The pest or weed control at 50 µg/cm2 in assay [2] and in assay [3] was 50 to 100% each time.
As for `O=C(Nc1ccc(S(=O)(=O)CC(F)(F)F)cc1)c1cc(NC(=O)[C@H]2[C@H](c3cc(Cl)cc(Cl)c3)C2(Cl)Cl)ccc1Cl` (relative stereo) [PF17, trans-2-chloro-5-(2,2-dichloro-3-(3,5-dichlorophenyl)cyclopropane-1-carboxamido)-N-(4-((2,2,2-trifluoroethyl)sulfonyl)phenyl)benzamide], the YFM rating result in assay [1] was “B (More than 0-Less than 80)”. The pest or weed control at 50 µg/cm2 in assay [2] and in assay [3] was 50 to 100% in each case.
For the molecule `O=C(Nc1ccc([S+]([O-])CC(F)(F)F)cc1)c1cc(NC(=O)[C@H]2[C@H](c3cc(Cl)cc(Cl)c3)C2(Cl)Cl)ccc1Cl` (relative stereo) [PF18, trans-2-Chloro-5-(2,2-dichloro-3-(3,5-dichlorophenyl)cyclopropane-1-carboxamido)-N-(4-((2,2,2-trifluoroethyl)sulfinyl)phenyl)benzamide], the YFM rating entry in assay [1] is listed as “B (More than 0-Less than 80)”. The pest or weed control at 50 µg/cm2 in assay [2] and in assay [3] was 50 to 100% throughout.
Turning to `O=C(Nc1ccc(S(=O)(=O)C(F)(F)F)cc1)c1cc(NC(=O)[C@H]2[C@H](c3cc(Cl)cc(Cl)c3)C2(Cl)Cl)ccc1Cl` (relative stereo) [PF19, trans-2-Chloro-5-(2,2-dichloro-3-(3,5-dichlorophenyl)cyclopropane-1-carboxamido)-N-(4-((trifluoromethyl)sulfonyl)phenyl)benzamide], the YFM rating result in assay [1] was “A (80-100)”. The pest or weed control at 50 µg/cm2 in assay [2] and in assay [3] was 50 to 100% throughout.
Consider `O=C(Nc1ccc([S+]([O-])C(F)(F)F)cc1)c1cc(NC(=O)[C@H]2[C@H](c3cc(Cl)cc(Cl)c3)C2(Cl)Cl)ccc1Cl` (relative stereo) [PF20, trans-2-Chloro-5-(2,2-dichloro-3-(3,5-dichlorophenyl)cyclopropane-1-carboxamido)-N-(4-((trifluoromethyl)sulfinyl)phenyl)benzamide], for which the YFM rating result in assay [1] is listed as “A (80-100)”. Besides, the pest or weed control at 50 µg/cm2 in assay [2] and in assay [3] was 50 to 100% in each case.
As for `Cl.Nc1ccc(NC(=O)c2cc(NC(=O)[C@H]3[C@H](c4cc(Cl)cc(Cl)c4)C3(Cl)Cl)ccc2Cl)cc1` (relative stereo) [PF21, trans-N-(4-aminophenyl)-2-chloro-5-(2,2-dichloro-3-(3,5-dichlorophenyl)cyclopropane-1-carboxamido)benzamide hydrochloride], the YFM rating result in assay [1] was “A (80-100)”. Moreover, the pest or weed control at 50 µg/cm2 in assay [2] and in assay [3] was 50 to 100% each time.
As for `CNc1ccc(NC(=O)c2cc(NC(=O)[C@H]3[C@H](c4cc(Cl)cc(Cl)c4)C3(Cl)Cl)ccc2Cl)cc1` (relative stereo) [PF22, trans-2-Chloro-5-(2,2-dichloro-3-(3,5-dichlorophenyl)cyclopropane-1-carboxamido)-N-(4-(methylamino)phenyl)benzamide hydrochloride], the YFM rating entry in assay [1] is recorded as “A (80-100)”. For the same molecule, the pest or weed control at 50 µg/cm2 in assay [2] and in assay [3] was 50 to 100% throughout.
Consider `O=C(Nc1ccc(NC(=O)C(F)(F)F)cc1)c1cc(NC(=O)[C@H]2[C@H](c3cc(Cl)cc(Cl)c3)C2(Cl)Cl)ccc1Cl` (relative stereo) [PF24, trans-2-chloro-5-(2,2-dichloro-3-(3,5-dichlorophenyl)cyclopropane-1-carboxamido)-N-(4-(2,2,2-trifluoroacetamido)phenyl)benzamide], for which the YFM rating entry in assay [1] is listed as “A (80-100)”. Also, the pest or weed control at 50 µg/cm2 in assay [2] and in assay [3] was 50 to 100% each time.
Regarding `O=C(CC(F)(F)F)Nc1ccc(NC(=O)c2cc(NC(=O)[C@H]3[C@H](c4cc(Cl)cc(Cl)c4)C3(Cl)Cl)ccc2Cl)cc1` (relative stereo) [PF25, trans-2-chloro-5-(2,2-dichloro-3-(3,5-dichlorophenyl)cyclopropane-1-carboxamido)-N-(4-(3,3,3-trifluoropropanamido)phenyl)benzamide], the YFM rating entry in assay [1] is given as “B (More than 0-Less than 80)”. For the same molecule, the pest or weed control at 50 µg/cm2 in assay [2] and in assay [3] was 50 to 100% each time.
For the molecule `C=CC(=O)Nc1ccc(NC(=O)c2cc(NC(=O)[C@H]3[C@H](c4cc(Cl)cc(Cl)c4)C3(Cl)Cl)ccc2Cl)cc1` (relative stereo) [PF26, trans-N-(4-Acrylamidophenyl)-2-chloro-5-(2,2-dichloro-3-(3,5-dichlorophenyl)cyclopropane-1-carboxamido)benzamide], in assay [1], the YFM rating entry is “A (80-100)”. For the same molecule, the pest or weed control at 50 µg/cm2 in assay [2] and in assay [3] was 50 to 100% throughout.
As for `CN(C(=O)CC(F)(F)F)c1ccc(NC(=O)c2cc(NC(=O)[C@H]3[C@H](c4cc(Cl)cc(Cl)c4)C3(Cl)Cl)ccc2Cl)cc1` (relative stereo) [PF30, trans-2-Chloro-5-(2,2-dichloro-3-(3,5-dichlorophenyl)cyclopropane-1-carboxamido)-N-(4-(3,3,3-trifluoro-N-methylpropanamido)phenyl)benzamide], in assay [1], the YFM rating entry was “B (More than 0-Less than 80)”. For the same molecule, the pest or weed control at 50 µg/cm2 in assay [2] and in assay [3] was 50 to 100% throughout.
In the case of `C[C@]1(c2ccc(OC(F)(F)F)cc2)[C@H](C(=O)Nc2ccc(Cl)c(C(=O)Nc3ccc(F)cc3)c2)C1(Cl)Cl` (relative stereo) [PF32, trans-2-Chloro-5-(2,2-dichloro-3-methyl-3-(4-(trifluoromethoxy)phenyl)cyclopropanecarboxamido)-N-(4-fluorophenyl)benzamide], the YFM rating entry in assay [1] is “A (80-100)”. For the same molecule, the pest or weed control at 50 µg/cm2 in assay [2] and in assay [3] was 50 to 100% each time.
As for `O=C(Nc1ccc(F)cc1)c1cc(NC(=O)[C@H]2[C@H](c3cc(Cl)cc(Br)c3)C2(Cl)Cl)ccc1Cl` (relative stereo) [PF37, 5-(trans-3-(3-Bromo-5-chlorophenyl)-2,2-dichlorocyclopropane-1-carboxamido)-2-chloro-N-(4-fluorophenyl)benzamide], in assay [1], the YFM rating result was “B (More than 0-Less than 80)”. For the same molecule, the pest or weed control at 50 µg/cm2 in assay [2] and in assay [3] was 50 to 100% throughout.
Consider `CC(=O)Nc1ccc(NC(=O)c2cc(NC(=O)[C@H]3[C@H](c4cc(Cl)cc(Cl)c4)C3(Cl)Cl)ccc2Cl)c(F)c1` (relative stereo) [PF40, trans-N-(4-Acetamido-2-fluorophenyl)-2-chloro-5-(2,2-dichloro-3-(3,5-dichlorophenyl)cyclopropane-1-carboxamido)benzamide], for which the YFM rating result in assay [1] is on record as “A (80-100)”. The pest or weed control at 50 µg/cm2 in assay [2] and in assay [3] was 50 to 100% throughout.
Take `CC(=O)Nc1ccc(NC(=O)c2cc(NC(=O)[C@H]3[C@H](c4cc(Cl)c(Cl)c(Cl)c4)C3(Cl)Cl)ccc2Cl)c(F)c1` (relative stereo) [PF42, trans-N-(4-Acetamido-2-fluorophenyl)-2-chloro-5-(2,2-dichloro-3-(3,4,5-trichlorophenyl)cyclopropane-1-carboxamido)benzamide]: the YFM rating result in assay [1] is on record as “A (80-100)”. For the same molecule, the pest or weed control at 50 µg/cm2 in assay [2] and in assay [3] was 50 to 100% each time.
With `Cc1cc(NC(=O)c2cc(NC(=O)[C@H]3[C@H](c4cc(Cl)cc(Cl)c4)C3(Cl)Cl)ccc2Cl)ccc1F` (relative stereo) [PF44, trans-2-Chloro-5-(2,2-dichloro-3-(3,5-dichlorophenyl)cyclopropane-1-carboxamido)-N-(4-fluoro-3-methylphenyl)benzamide], the YFM rating result in assay [1] is recorded as “A (80-100)”. Besides, the pest or weed control at 50 µg/cm2 in assay [2] and in assay [3] was 50 to 100% in each case.
On to `Cc1cc(F)ccc1NC(=O)c1cc(NC(=O)[C@H]2[C@H](c3ccc(Cl)c(Cl)c3)C2(Cl)Cl)ccc1Cl` (relative stereo) [PF46, trans-2-Chloro-5-(2,2-dichloro-3-(3,4-dichlorophenyl)cyclopropane-1-carboxamido)-N-(4-fluoro-2-methylphenyl)benzamide], for which, in assay [1], the YFM rating entry was “A (80-100)”. The pest or weed control at 50 µg/cm2 in assay [2] and in assay [3] was 50 to 100% throughout.

The values are drawn from US10219516B2, “Molecules having pesticidal utility, and intermediates, compositions, and processes, related thereto” (priority 2015, dated 2019).
